Among the data in the OPERA property sets (Mansouri et al. 2018) are logP values, retold here.

Peptide text beside a SMILES is read from it. * marks the point of attachment. NHtBu = CC(C)(C)N*

Usually logP stands for a log measure of how a compound divides between an organic and an aqueous phase. High values mean a more lipophilic compound, low ones a more hydrophilic compound.

`CN(C)C(=O)Nc1ccccc1` returned a logP of 0.98.
Next, `CCCCOCC1CO1` (stereo unspecified): 0.63; `CCOP(=S)(OCC)SCn1c(=O)oc2cc(Cl)ccc21`: 4.38.
In the case of `Nc1nc2[nH]cnc2c(=O)[nH]1`, the lipophilicity (logP) is -0.91.
Next, `CC(=O)OCc1coc(Cc2ccccc2)c1`: 3.24; `FC(F)(F)c1cccc2cccnc12`: 2.5; `CCNC(N)=O`: -0.74.
Then `CN(C)C(N(C)C)=S(I)c1ccccc1` (stereo unspecified), with -0.68; and `CCCCCCCOC(N)=O`, with 2.36.
Then `COc1ccccc1OCC(=O)O`, with 0.98; and `OCCCl`, with 0.03; and `O=C(C(=O)c1ccco1)c1ccco1`, with 1.24.
In turn, `CC1=C(N2CC2)C(=O)C(Cl)=C(N2CC2)C1=O` came in with a lipophilicity (logP) of 1.2.
Then `CC(=O)Nc1ccc(Br)cc1`, with 2.29; and `O=C(O)c1c(O)cccc1O`, with 2.2; and `COC1=CC(=O)C[C@@H](C)[C@]12Oc1c(Cl)c(OC)cc(OC)c1C2=O`, with 2.18.
`Clc1ccc(-c2ccc(Cl)c(Cl)c2Cl)cc1` displayed a log partition coefficient (logP) of 5.84.
The compound `O=[N+]([O-])c1ccc(N=C=S)cc1` had a log partition coefficient (logP) of 3.62.
Next, `Oc1cccc(-c2ccccc2)c1`: 3.23; `O=[N+]([O-])C=Cc1ccsc1`: 1.94.
As to `O=C1C=C(N2CC2)C(=O)c2ccccc21`, the log partition coefficient (logP) is 1.71.
Next, `CON(C)C(=O)Nc1ccc(Cl)c(Cl)c1`: 3.2.
Consider `CC/C(=C(/CC)c1ccc(O)cc1)c1ccc(O)cc1`, for which the logP was determined as 5.07.
Then `CCCCOCc1ccccc1NC(=O)OCCN1CCCCC1`, with 3.94; and `OCC1CC1c1ccccc1` (stereo unspecified), with 1.95.
The compound `c1ccc2oncc2c1` showed a logP of 1.63.
`CC(C)(C)C1Nc2cc(Cl)c(S(N)(=O)=O)cc2S(=O)(=O)N1` (stereo unspecified) came in with a log partition coefficient (logP) of 0.36.
Next, `CCCC1(c2ccncc2)CCC(=O)NC1=O` (stereo unspecified): 1.13; `Cc1[nH]cnc1CSCCNc1[nH]ccc(=O)c1[N+](=O)[O-]`: -0.2; `CC(=O)NC(C)C(=O)NC(Cc1c[nH]c2ccccc12)C(=O)NC(C)C(=O)NC(C)(C)C` (stereo not drawn) (Ac-Ala-Trp-Ala-NHtBu; configuration not given here): 1.26.
`NC(=O)Nc1cccc(OCC(=O)O)c1` had a logP of 0.26.
`C[C@@H]1C[C@H]2[C@@H]3CCC4=CC(=O)C=C[C@]4(C)[C@@]3(F)[C@@H](O)C[C@]2(C)[C@@]1(O)C(=O)CO` gave a logP of 1.83.
The compound `COc1ccccc1OC(=O)c1ccc(N)cc1O` gave a logP of 2.88.
Next, `O=CNC(=O)C1CCC1`: -0.7; `CC1=CC(=O)C=C(Br)C1=O`: 1.21; `N#Cc1cccc(F)c1`: 1.47.
Consider `Nc1cc(N=O)ccc1O`, for which the logP was found to be 0.03.
On to `O=[N+]([O-])c1ccc(N2CCCCC2)cc1`, for which the lipophilicity (logP) is 3.26.
With `CN(C)C(N(C)C)=S(I)c1ccc(S(=O)(=O)N(C)C)cc1` (stereo unspecified), the logP is -0.81.
`COc1ccccc1C(=O)O`: the logP was found to be 1.59.
For `C1CCCCCC1`, the log partition coefficient (logP) came out at 4.
`CC(C)(C)C1(O)CCN2CC3c4ccccc4CCc4cccc(c43)C2C1` (stereo unspecified) returned a log partition coefficient (logP) of 5.2.
`O=[N+]([O-])c1ccc2cccccc1-2` came in with a logP of 2.59.
With `ClC(Cl)(Cl)C(Cl)(Cl)Cl`, the lipophilicity (logP) is 4.14.
In turn, `O=Nc1c(O)ccc2ccccc12` had a logP of 2.28.
`O=C(NC(=O)c1ccccc1O)c1ccccc1` gave a log partition coefficient (logP) of 1.38.
The compound `CCNc1nc(NC(C)C)nc(SC)n1` registered a logP of 2.98.
Next, `FC(F)Cl`: 1.08; `Nc1ccc(S(=O)(=O)c2ccc(N)cc2)cc1`: 0.97.
`CC(C)(C)NC[C@H](O)COc1ccccc1C1CCCC1` displayed a lipophilicity (logP) of 4.15.
`Clc1cccc(Cl)c1` gave a logP of 3.53.
Then `S=C=Nc1ccc(Br)cc1`, with 4.03.
The compound `FC(Cl)Cl` had a logP of 1.55.
Then `CC1(C)NC(=O)NC1=O`, with -0.48; and `CCC(=O)NN`, with -1.
Consider `CC(C(=O)O)c1ccc(N2CC3=C(CCCC3)C2=O)cc1` (stereo unspecified), for which the logP turned out to be 3.07.
Take `O=[N+]([O-])c1cc2ccccc2nn1`: the lipophilicity (logP) came out at 0.73.
For the compound `O=C(O)Cc1ccccc1Nc1cccc(Cl)c1Cl`, the lipophilicity (logP) came to 4.86.
The compound `CCNC(=O)c1ccco1` had a logP of 0.61.
As to `CCC1(c2ccccc2)C(=O)NC(=O)N(C)C1=O` (stereo unspecified), the logP was 1.84.
Compound `CCCCOc1ccc(C(N)=O)cc1` yielded a log partition coefficient (logP) of 2.48.
Take `Cc1cncc(C)c1`: the logP turned out to be 1.78.
On to `Cc1ccc(NC(=O)c2cccnc2)cc1`, for which the logP stood at 2.08.
Next, `CC(O)CCC(=O)c1ccoc1` (stereo unspecified): 0.84.
The compound `c1ccc(CN2CCOCC2)cc1` showed a lipophilicity (logP) of 1.58.
With `CCc1cccc(C)c1N(C(=O)CCl)C(C)COC` (stereo unspecified), the logP is 3.13.
On to `CC1CN(N=O)CC(C)O1` (stereo unspecified), for which the logP is 0.32.
`CC(=O)OCC(=O)[C@@]1(O)CC[C@H]2[C@@H]3CCC4=CC(=O)CC[C@]4(C)[C@H]3C(=O)C[C@@]21C` came in with a logP of 2.1.
As for `Cc1c[nH]c(=O)[nH]c1=O`, the logP was -0.62.
As to `C1=C(c2ccccc2)CCCC1`, the logP is 4.53.
With `COc1cccc2cccnc12`, the logP was 1.84.
On to `O=C(O)c1ccccc1I`, for which the log partition coefficient (logP) is 2.4.
Next, `O=C(O)Cc1ccccc1Nc1c(Cl)cccc1Br`: 4.64.
In turn, `CCN(CC)C(=O)c1ccccc1` came in with a logP of 1.25.
Turning to `Cc1cc2[nH]c(=O)c(=O)[nH]c2cc1C`, the log partition coefficient (logP) was 1.34.
In turn, `Cc1cc(C#N)ccn1` yielded a logP of 0.81.
`OC[C@H]1O[C@@H](n2cnc3c(O)ncnc32)[C@H](O)[C@@H]1O` gave a log partition coefficient (logP) of -2.1.
`COC(=O)CCCCCC(=O)OCC(=O)C1(O)CCC2C3CCC4=CC(=O)CCC4(C)C3C(O)CC21C` (stereo unspecified) gave a lipophilicity (logP) of 3.7.
In turn, `CCCCc1cccc(NC(=O)N(C)C)c1` registered a lipophilicity (logP) of 3.23.
For the compound `COc1cccc(CC(=O)O)c1`, the lipophilicity (logP) worked out at 1.5.
`CCOP(=S)(OCC)SCSP(=S)(OCC)OCC` displayed a log partition coefficient (logP) of 5.07.
`O=c1[nH]cc(Br)c(=O)[nH]1` yielded a log partition coefficient (logP) of -0.21.
For `Cc1ncc[nH]1`, the logP is 0.24.
The compound `N#CCc1cccc(Oc2ccccc2)c1` displayed a log partition coefficient (logP) of 3.03.
The compound `C(#Cc1ccccc1)c1ccccc1` returned a lipophilicity (logP) of 4.78.
As to `CC(C)(C)c1ccccn1`, the logP came out at 2.4.
In turn, `Nc1cc(C(F)(F)F)ccc1Cl` registered a logP of 3.06.
Turning to `CCCCCc1cn[nH]c1`, the lipophilicity (logP) stood at 2.96.
Then `CCC(C)OC(C)=O` (stereo unspecified), with 1.72.
Compound `Oc1cccnc1` came in with a log partition coefficient (logP) of 0.48.
Then `CC(C)=O`, with -0.24; and `COc1ccc(OC(=O)c2ccc(N)cc2O)cc1`, with 3.07.
Then `Cc1cccc(C)c1`, with 3.2; and `C=C(C)C`, with 2.34.
As for `Nc1ccccc1S`, the log partition coefficient (logP) worked out at 1.43.
Regarding `CC(C)c1ccccc1OCC(=O)O`, the logP is 2.84.
Regarding `Cc1cc(O)c(C(C)C)cc1Cl`, the logP was 3.92.
`CCOc1ccccc1O` yielded a log partition coefficient (logP) of 1.68.
As for `Cc1cccc(C)n1`, the logP was 1.68.
Next, `O=C(NCCO)C(F)(F)Cn1ccnc1[N+](=O)[O-]`: -0.52; `CC[C@H](C)C(=O)O[C@H]1C[C@H](O)C=C2C=C[C@H](C)[C@H](CC[C@@H]3C[C@@H](O)CC(=O)O3)[C@H]21`: 2.42.
Next, `Cc1ccc(N=C=S)cc1`: 3.92.
For `Cc1ccc(O)c(-n2nc3ccccc3n2)c1`, the log partition coefficient (logP) worked out at 4.31.
In turn, `c1ccc(NC2=NCCN2)cc1` came in with a logP of 1.01.
Next, `CCCC(=NOCC)C1C(=O)CC2(CCC(C)CC2)OC1=O` (stereo unspecified): 4.07; `COC(=O)Cc1cccs1`: 1.51.
On to `CCO[Si](C)(C)OCC`, for which the logP is 0.61.
Next, `N#CNC(=N)N`: -1.15; `COc1ccc(C(O)C(C(=O)O)c2ccc(-c3ccccc3)cc2)cc1` (stereo unspecified): 3.59.
In the case of `c1ccc2cnccc2c1`, the logP stood at 2.08.
`CCn1c(=O)c2nc(-c3ccc(S(=O)(=O)NCCN(C)C)cc3)[nH]c2n(CC)c1=O` registered a logP of 2.57.
Take `NC(=S)c1cccs1`: the logP stood at 1.34.
Next, `O=C(c1ccccc1)c1cccnc1`: 1.88; `CN(C)C(=O)Nc1ccc(Cl)c(Cl)c1`: 2.68.
The compound `CC12CCC(=O)C=C1CCC1C2C(O)CC2(C)C1CCC2(O)C(=O)COC(=O)CCCCCC(N)=O` (stereo unspecified) had a logP of 2.3.
With `FCCCc1ccccc1`, the logP is 2.95.
For the compound `COc1ccc(N=NN(C)C)cc1`, the logP is 2.99.
Then `CCC(=O)C1(c2cccc(OC(=O)C(C)(C)C)c2)CCN(C)CC1`, with 2.59.
As for `CN(C)C(N(C)C)=S(I)c1ccccc1[N+](=O)[O-]` (stereo unspecified), the lipophilicity (logP) was -0.92.
Consider `COCCOCC1COC(c2ccc(Cl)cc2Cl)(n2cncn2)O1` (stereo unspecified), for which the lipophilicity (logP) worked out at 2.03.
`CCC[N+](=O)[O-]` had a lipophilicity (logP) of 0.87.
The compound `COc1ccccc1OC` showed a logP of 1.6.
Next, `O=S(=O)(Nc1ccc(Cl)cc1)C(F)F`: 2.84; `CNCCOc1cc(C)c(O)cc1C(C)C`: 2.35; `CCCCCOC(N)=O`: 1.35.
For `CNC(=O)Oc1ccc(C)cc1`, the logP is 1.66.
`CCCCCc1ccccc1`: the logP was determined as 4.9.
Then `CC(=O)Oc1ccc(C(C)=O)cc1`, with 1.29.
Next, `O=C(O)Cc1ccc(I)cc1`: 2.64; `CCS(=O)(=O)c1ccc(S(N)(=O)=O)c2ccccc12`: 1.24; `C/C(=N/Nc1nc(C)cc(C)n1)c1ccccc1C`: 2.98.
In turn, `Cc1ccc(NC(=O)c2ccccc2)c(O)c1` yielded a logP of 3.08.
Compound `CN(C)C(N(C)C)=S(I)c1cccc([N+](=O)[O-])c1` (stereo unspecified) returned a log partition coefficient (logP) of -0.88.
With `C1=CC=CC=CC=C1`, the logP amounted to 3.08.
As for `Nc1ccc(Cl)c([N+](=O)[O-])c1`, the logP was found to be 2.06.
Compound `CCOC(C)OCC` registered a logP of 0.84.
